In US8791132B2, “Compounds and methods for treatment of hypertension” (Medivation Technologies, Inc., priority 2011, dated 2014):
Read-outs that look alike come from different tables or passages of the source. Each block holds one compound with its values, some of them ahead of it.

Tests used:
[1] = biological target: T1, human recombinant adrenergic α2B receptor (Homo sapiens, UniProt P18089); assay: Radioligand binding, adrenergic α2B ([3H]Rauwolscine); conditions: for Ki: read-out: Ki α2B; for inhibition at 0.03 µM: read-out: Percentage inhibition of ligand binding, Adrenergic α2B (0.03 μM), compound at 0.03 μM; for Percentage inhibition of ligand binding, Adrenergic α2B (0.03 μM): compound at 0.03 μM
T1 construct: expressed in transfected cells; host or cells: CHO-K1
T1 sequence (P18089 1-450): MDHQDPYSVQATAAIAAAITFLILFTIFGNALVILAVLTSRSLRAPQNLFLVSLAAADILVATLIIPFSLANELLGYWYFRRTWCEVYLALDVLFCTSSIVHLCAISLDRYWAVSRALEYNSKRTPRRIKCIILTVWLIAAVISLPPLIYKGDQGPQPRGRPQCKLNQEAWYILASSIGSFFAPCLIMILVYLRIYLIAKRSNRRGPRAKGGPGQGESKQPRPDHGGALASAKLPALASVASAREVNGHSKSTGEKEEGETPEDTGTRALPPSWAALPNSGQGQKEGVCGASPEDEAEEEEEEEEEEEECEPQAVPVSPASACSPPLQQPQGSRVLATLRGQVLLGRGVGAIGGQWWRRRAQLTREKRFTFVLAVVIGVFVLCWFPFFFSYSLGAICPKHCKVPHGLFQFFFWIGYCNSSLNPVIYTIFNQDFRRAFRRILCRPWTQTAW
Method: To evaluate in radioligand binding assays the activity of compounds of the invention, human recombinant adrenergic α2B receptor expressed in Chinese hamster ovary (CHO) K1 cells (Uhlen, S. et al, Eur. J. Pharmacol. 343(1):93, 1998) in a modified Tris-HCl buffer (50 mM Tris-HCl, pH 7.4, 12.5 mM MgCl2, 1 mM EDTA, 0.2% BSA) was used. Compounds of the invention were incubated with 2.5 nM [3H]Rauwolscine for 60 min at 25° C. Non-specific binding was estimated in the presence of 10 μM Prazosin. Receptor proteins were filtered and washed, the filters were then counted to determine [3H]Rauwolscine specifically bound. […] Compounds of the invention were tested in this biochemical assay and percent inhibition of specific binding was determined. Biochemical assay results are presented as the percent inhibition of specific binding in Table B1.

[2] = biological target: T2, human recombinant adrenergic α2A receptor (Homo sapiens, UniProt P08913); assay: Radioligand binding, adrenergic α2A ([3H]MK-912); conditions: for inhibition at 0.1 µM: read-out: Percentage inhibition of ligand binding, Adrenergic α2A (0.1 μM), compound at 0.1 μM; for inhibition at 0.1 µM / Percentage inhibition of ligand binding, Adrenergic α2A (0.1 μM): [3H]MK-912, repeat datapoints each shown; for Percentage inhibition of ligand binding, Adrenergic α2A (0.1 μM): compound at 0.1 μM; for Percentage inhibition of ligand binding, Adrenergic α2A: 0.1 μM compound; for Percentage inhibition of ligand binding, Adrenergic α2A (0.1 μM) / Percentage inhibition of ligand binding, Adrenergic α2A: 0.1 µM
T2 construct: expressed in transfected cells; host or cells: insect Sf9 cells
T2 sequence (P08913 1-465): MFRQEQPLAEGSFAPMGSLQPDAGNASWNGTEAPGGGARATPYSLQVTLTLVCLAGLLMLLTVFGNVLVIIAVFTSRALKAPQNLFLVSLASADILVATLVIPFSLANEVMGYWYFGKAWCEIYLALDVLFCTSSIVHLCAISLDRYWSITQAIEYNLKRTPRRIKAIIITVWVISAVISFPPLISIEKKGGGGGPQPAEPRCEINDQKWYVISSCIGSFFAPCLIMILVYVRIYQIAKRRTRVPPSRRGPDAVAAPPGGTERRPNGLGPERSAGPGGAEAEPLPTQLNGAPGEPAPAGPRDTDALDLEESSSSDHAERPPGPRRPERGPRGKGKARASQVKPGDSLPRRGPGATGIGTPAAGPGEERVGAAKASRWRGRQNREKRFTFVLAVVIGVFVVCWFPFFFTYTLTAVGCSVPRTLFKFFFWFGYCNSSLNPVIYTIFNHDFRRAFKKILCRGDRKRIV
Method: To evaluate in radioligand binding assays the activity of compounds of the invention, human recombinant adrenergic α2A receptor expressed in insect Sf9 cells (Uhlen, S. et al, J. Pharmacol. Exp. Ther. 271:1558, 1994) in a modified Tris-HCl buffer (50 mM Tris-HCl, pH 7.4, 12.5 mM MgCl2, 2 mM EDTA) was used. Compounds of invention were incubated with 1 nM [^3H]MK-912 for 60 min at 25° C. MK912 is (2S-trans)-1,3,4,5′,6,6′,7,12b-octahydro-1′,3′-dimethyl-spiro[2H-benzofuro[2,3-a]quinolizine-2,4′(1′H)-pyrimidin]-2′(3′H)-one hydrochloride. Non-specific binding was estimated in the presence of 10 μM WB-4101 (2-(2,6-Dimethoxyphenoxyethyl)aminomethyl-1,4-benzodioxane hydrochloride). Receptor proteins were filtered and washed, the filters were then counted to determine [^3H]MK-912 specifically bound. […] Compounds of the invention were tested in this biochemical assay and percent inhibition of specific binding was determined. Biochemical assay results are presented as the percent inhibition of specific binding in Table B1.

[3] = [3H]Rauwolscine, repeat datapoints each shown
[4] = read-out: Percentage inhibition of ligand binding, Adrenergic α2B (0.1 μM), compound at 0.1 μM, [3H]Rauwolscine, repeat datapoints each shown
[5] = [3H]Rauwolscine, repeat datapoints each shown, 0.03 µM
[6] = 0.1 μM compound, read-out: Percentage inhibition of ligand binding, Adrenergic α2B

SMILES: Cc1ccc2c(c1)c1c(n2CC(N=[N+]=[N-])c2ccncc2)CCN(C)C1 (racemic) [V-1, 5-(2-azido-2-(pyridin-4-yl)ethyl)-2,3,4,5-tetrahydro-2,8-dimethyl-1H-pyrido[4,3-b]indole]
Ki [1]: 0.51 nM
inhibition at 0.03 µM [1, 3]: 102%
inhibition at 0.1 µM [2]: 35%

SMILES: Cc1ccc2c(c1)c1c(n2CC(N)c2ccncc2)CC2CCC1N2C (single isomer, unassigned) [155a]
Percentage inhibition of ligand binding, Adrenergic α2A (0.1 μM) [2]: −1%

SMILES: Cc1ccc2c(c1)c1c(n2CC(C)(O)c2cccnc2)CCN(C)C1C (single isomer, unassigned) [II-152a]
Percentage inhibition of ligand binding, Adrenergic α2B (0.03 μM) [1, 5]: 93%

SMILES: Cc1ccc2c(c1)c1c(n2CCc2ccc(C(F)(F)F)nc2)C(C)(C)CN(C)C1 [II-40]
inhibition at 0.1 µM [1, 6]: 36%

SMILES: C/C(=C\n1c2c(c3cc(C)ccc31)CN(C)CC2(C)C)c1ccc(C)nc1 [II-61]
inhibition at 0.1 µM [1, 6]: 47%

SMILES: C/C(=C\n1c2c(c3cc(C)ccc31)CN(C)CC2(C)C)c1ccncc1 [II-70]
inhibition at 0.1 µM [1, 6]: 34%

SMILES: C/C(=C\n1c2c(c3cc(C)ccc31)CN(C)CC2)c1cnccc1C [II-76, (E)-2,8-dimethyl-5-(2-(4-methylpyridin-3-yl)prop-1-en-1-yl)-2,3,4,5-tetrahydro-1H-pyrido[4,3-b]indole]
inhibition at 0.1 µM [1, 6]: 103%

SMILES: OCCN1CCc2c(c3cc(Cl)ccc3n2CC(O)c2ccncc2)C1 (centres unmarked) [II-93b]
Percentage inhibition of ligand binding, Adrenergic α2A [2]: 4%

SMILES: Cc1ccc2c(c1)c1c(n2C(C)C(O)c2ccncc2)CCN(C)C1 (centres unmarked) [II-98b]
Percentage inhibition of ligand binding, Adrenergic α2B ([1]; 0.03 μM compound, 0.03 µM): 5%

SMILES: Cc1ccc(CCn2c3c(c4cccnc42)CN(C)CC3(C)C)cn1 [II-133]
inhibition at 0.1 µM [1, 4]: -5%

SMILES: CN1Cc2c(n(CCc3ccc(C(F)(F)F)nc3)c3ncccc23)C(C)(C)C1 [II-215]
inhibition at 0.1 µM [1, 4]: -5%

SMILES: FC(F)(F)c1ccc(CCn2c3c(c4cccnc42)CN2CCCC2C3)cn1 (centres unmarked) [II-236]
inhibition at 0.1 µM [1, 4]: -4%

SMILES: Cc1cnc2c(c1)c1c(n2CCc2ccc(C(F)(F)F)nc2)CCN2CCCC12 (centres unmarked) [II-238]
inhibition at 0.1 µM [1, 4]: 98%

SMILES: Cc1cnc2c(c1)c1c(n2CCc2ccc(C(F)(F)F)nc2)CC2CCCN2C1 (centres unmarked) [II-239]
inhibition at 0.1 µM [1, 4]: 17%

More lines, now with the values ahead:

Ki [1]: 15.1 nM
inhibition at 0.03 µM [1, 3]: 43%
inhibition at 0.1 µM [1, 4]: 74%
SMILES: Cc1ccc2c(c1)c1c(n2C(C)C(O)c2ccncc2)CCN(C)C1 (single isomer, unassigned) [127a]

Percentage inhibition of ligand binding, Adrenergic α2B (0.03 μM) [1, 5]: 69%
Percentage inhibition of ligand binding, Adrenergic α2A (0.1 μM) [2]: 21%
SMILES: Cc1cnc2c(c1)c1c(n2CC(O)c2ccc(F)cc2)CCN(C)C1 (single isomer, unassigned) [136b]

Percentage inhibition of ligand binding, Adrenergic α2A (0.1 μM) [2]: 63%
SMILES: Cc1ccc2c(c1)c1c(n2CC(O)c2ccc(C#N)cc2)CCN(C)C1 (single isomer, unassigned) [142b]

Percentage inhibition of ligand binding, Adrenergic α2B (0.03 μM) [1, 5]: 11%
Percentage inhibition of ligand binding, Adrenergic α2A (0.1 μM) [2]: −11%
SMILES: Cc1cnc2c(c1)c1c(n2CC(C)(O)c2ccc(C)nc2)CCN2CCCC12 (single isomer, unassigned) [148d]

inhibition at 0.1 µM [2]: 17%
SMILES: Cc1ccc2c(c1)c1c(n2CC(c2ccncc2)N2CCCC2)CCN(C)C1 (single isomer, unassigned) [152a]

Percentage inhibition of ligand binding, Adrenergic α2B (0.03 μM) [1, 5]: 94%
Percentage inhibition of ligand binding, Adrenergic α2A (0.1 μM) [2]: 96%
SMILES: C/C(=C\n1c2c(c3cc(C)ccc31)C1CCCCN1CC2)c1ccc(F)cc1 (single isomer, unassigned) [199a]

Percentage inhibition of ligand binding, Adrenergic α2B (0.03 μM) [1, 5]: 27%
Percentage inhibition of ligand binding, Adrenergic α2A (0.1 μM) [2]: 61%
SMILES: C/C(=C\n1c2c(c3cc(C)ccc31)C1CCCCN1CC2)c1ccc(F)cc1 (single isomer, unassigned) [199b]

Percentage inhibition of ligand binding, Adrenergic α2A [2]: 64%
SMILES: CN1CCc2c(n(CC(O)c3ccc(F)c(F)c3)c3ccc(Cl)cc23)CC1 (single isomer, unassigned) [339b]

inhibition at 0.03 µM [1, 3]: 98%
SMILES: C/C(=C\n1c2c(c3cc(C)ccc31)C1CCCN1CC2)c1ccc(C)nc1 (centres unmarked) [193a, 10-methyl-7-(2-(6-methylpyridin-3-yl)prop-1-enyl)-2,3,5,6,7,11c-hexahydro-1H-indolizino[7,8-b]indole]

inhibition at 0.1 µM [1, 4]: 50%
SMILES: FC(F)(F)c1ccc(CCn2c3c(c4cccnc42)C2CCCN2CC3)cn1 (centres unmarked) [IV-2]
